Measured values published in US20140193802A1, “IDENTIFICATION OF AN ALTERED THERAPEUTIC SUSCEPTIBILITY TO ANTI-HCMV COMPOUNDS AND OF A RESISTANCE AGAINST ANTI-HCMV COMPOUNDS” (priority 2012, published 2014).
Like-named read-outs stand apart in the source and are kept apart here.

Assays:
Type in all cases: cell-based, human cytomegalovirus (HCMV)
RV-HG UL56-C325Yrev = assay: GFP-RA, marker transfer revertant; conditions: Human betaherpesvirus 5
Method: (§1) HCMV Fluorescence Reduction Assay (GFP-RA)
(§2) The susceptibilities of recombinant HCMV laboratory strains expressing GFP were determined by a GFP-based fluorescence reduction assay. For standard assays, 1.5×10^4 NHDF cells/well were cultured in black 96-well plates (Greiner Bio-One, Germany) and infected with either HCMV-GFP (MOI, 0.1) or RV-HG (MOI, 0.2 to 0.5). After virus adsorption, the virus inoculum was replaced with 200 μl fresh medium. Thereafter, 100 μl medium containing the test compounds was added to wells of horizontal row G, followed by serial 3-fold dilutions up to row A. All drug concentrations were tested at least in duplicate. Wells of the horizontal row H served as the virus control. Plates were incubated at 37° C. for 7 days. The medium was replaced by 200 μl PBS, and GFP units (GFPU) were determined by a charge-coupled-device-camera-based fluorescence detector (FluoBox; Bayer Technology Services GmbH, Leverkusen, Germany), which captures 96 images simultaneously. Drug effects were calculated as a percentage of reduction in GFPU in the presence of each drug concentration compared to the GFPU determined in the absence of drug. EC50 and EC90 values (drug concentrations producing 50% and 90% reduction in GFPU) were calculated using nonlinear regression curve fit with a variable slope. GraphPad Prism 3.02 or 4.0 software (GraphPad Software Inc., La Jolla, Calif.) was used for all analyses.
(§3) The HCMV AD169-derived bacterial artificial chromosome (BAC) pHG served as the backbone for the construction of the mutant viruses. The markerless introduction of point mutations into pHG was done using a two-step recombination protocol according to the en passant method. Briefly, a recombination fragment containing the I-SceI-AphAI cassette from plasmid pEPKan-S was obtained by PCR using primers containing ˜60 bp of homology to the intended integration site in ORF UL56 of BAC pHG and ˜20 bp specific for pEPKan-S. This fragment was electroporated into Escherichia coli GS1783 that harbored the pHG BAC. […] After successful kanamycin selection, all non-HCMV sequences were removed by an intrabacterial ISceI digest and a subsequent second Red recombination, resulting in the scarless repair of the mutated UL56 gene in the background of BAC pHG. The integrity of the generated BACs was confirmed by restriction enzyme digestion and sequencing. To reconstitute virus mutants, the recombinant BACs were transfected into permissive MRC5 cells. At least two independent virus clones per mutation were generated and evaluated.

RV-HG (wt-HCMV) = assay: HCMV fluorescence reduction assay (GFP-RA); conditions: Human betaherpesvirus 5
Method: as §1, §2, §3

RV-HG-UL56 mutants = assay: GFP-RA, drug susceptibility profile of the virus mutants; conditions: fluorescence reduction assays; for BAY 38-4766 and BDCRB with the exception of the strain carrying UL56 R369M
Method: as §1, §2
as §3, with “The integrity of the generated BACs was confirmed by restriction enzyme digestion and sequencing.” left out

Structure (SMILES) | EC50 (RV-HG UL56-C325Yrev) [nM] | EC50 (RV-HG (wt-HCMV)) [nM] | sensitivity of the RV-HG-UL56 mutants compared with the parental wild-type virus RV-HG (RV-HG-UL56 mutants) | EC50 (RV-HG UL56-C325Yrev; RV-HG UL56-C325Yrev, fluorescence reduction assay, mean ± SD, read-out: EC50) [nM] | EC50 (RV-HG (wt-HCMV); RV-HG (wt-HCMV), fluorescence reduction assay, mean ± SD, read-out: EC50) [nM]
Nc1nc(O)c2ncn(COC(CO)CO)c2n1 [Ganciclovir] | 2830 ± 810 | 2210 ± 990 | did not differ | – | –
COc1cccc(N2CCN(C3=Nc4c(F)cccc4[C@H](CC(=O)O)N3c3cc(C(F)(F)F)ccc3OC)CC2)c1 [Letermovir, (S)-{8-fluoro-2-[4-(3-methoxyphenyl)-1-piperazinyl]-3-[2-methoxy-5-(trifluoromethyl)phenyl]-3,4-dihydro-4-quinazolinyl}acetic acid] | – | – | resistant | 3.9 ± 0.9 | 3 ± 1.2
